Experiments:
[1] = molecular target: RON (Homo sapiens, UniProt Q04912); assay: Inhibitory activity against RON, TR-FRET kinase assay; type: biochemical; conditions: RON enzyme
Description: In order to measure the inhibitory activity of each of the compounds of Examples against RON, the IC50 of each of the compounds was measured using a Time-Resolved Fluorescence Energy Transfer Chemistry (TR-FRET).
(§1) Specifically, the compound was prepared to a concentration of 1 mM with 100% DMSO and was diluted 10 times in a stepwise manner through 3-fold dilution. 2 ul of the compound diluted in a stepwise manner was added to a 96-well-plate containing 48 ul of a 1× kinase reaction buffer (50 mM HEPES (pH 7.4), 0.01% Tween-20, 5 mM DTT, 0.5 mM Na3VO4, 2 mM EGTA, 10 mM MgCl2).
The RON protein was diluted to a concentration of 49.3 nM with an RON storage buffer (50 mM Tris-HCl (pH 7.5), 150 mM NaCl, 0.5 mM EDTA, 0.02% Triton X-100), and then diluted again to a concentration of 0.4 nM with a 1× kinase reaction buffer. As a substrate cocktail, a RON-specific substrate mixture (40 uM ULight-labeled Poly GT, 100 nM ATP) at a concentration 2 times the final reaction concentration.
Thereafter, a 384-well-plate was prepared, and 2.5 ul of each of the diluted compounds of Examples was added to a corresponding well of experimental group wells, and 2.5 ul of a 4% DMSO solution was dispensed into high control wells and low control wells.
(§2) Thereafter, 2.5 μL of 0.4 nM RON was dispensed into the high control wells and the experimental group wells, and 2.5 μL of a 1× kinase reaction buffer was added to the low control wells, and the RON and the reaction buffer were centrifuged at room temperature for 40 seconds at 1000 RPM, and then incubated at room temperature for 20 to 30 minutes. Then, 5 μL of a substrate cocktail (2×) was dispensed into all wells, centrifuged at room temperature for 40 seconds at 1000 RPM, and then incubated at room temperature for 60 minutes. Thereafter, 5 μL of 30 mM EDTA was added to all wells to terminate the reaction, and then incubated again at room temperature for 5 minutes. Thereafter, 5 μL of a 4× phosphotyrosine antibody (Perkin Elmer) containing europium was added to all wells, and then incubated at room temperature for 60 minutes. After the incubation, the 384-well-plate was read with a Vison plate reader. At this time, the excitation wavelength was 340 nm, and the emission wavelength was 620 nm and 665 nm. The IC50 value of the compound of each Example was derived using the GraphPd Prism7 program.

[2] = molecular target: cMET (Homo sapiens, UniProt P08581); assay: Inhibitory activity against MET (cMET), TR-FRET kinase assay; type: biochemical; conditions: cMET enzyme
Chain of cMET (P08581 25-1390): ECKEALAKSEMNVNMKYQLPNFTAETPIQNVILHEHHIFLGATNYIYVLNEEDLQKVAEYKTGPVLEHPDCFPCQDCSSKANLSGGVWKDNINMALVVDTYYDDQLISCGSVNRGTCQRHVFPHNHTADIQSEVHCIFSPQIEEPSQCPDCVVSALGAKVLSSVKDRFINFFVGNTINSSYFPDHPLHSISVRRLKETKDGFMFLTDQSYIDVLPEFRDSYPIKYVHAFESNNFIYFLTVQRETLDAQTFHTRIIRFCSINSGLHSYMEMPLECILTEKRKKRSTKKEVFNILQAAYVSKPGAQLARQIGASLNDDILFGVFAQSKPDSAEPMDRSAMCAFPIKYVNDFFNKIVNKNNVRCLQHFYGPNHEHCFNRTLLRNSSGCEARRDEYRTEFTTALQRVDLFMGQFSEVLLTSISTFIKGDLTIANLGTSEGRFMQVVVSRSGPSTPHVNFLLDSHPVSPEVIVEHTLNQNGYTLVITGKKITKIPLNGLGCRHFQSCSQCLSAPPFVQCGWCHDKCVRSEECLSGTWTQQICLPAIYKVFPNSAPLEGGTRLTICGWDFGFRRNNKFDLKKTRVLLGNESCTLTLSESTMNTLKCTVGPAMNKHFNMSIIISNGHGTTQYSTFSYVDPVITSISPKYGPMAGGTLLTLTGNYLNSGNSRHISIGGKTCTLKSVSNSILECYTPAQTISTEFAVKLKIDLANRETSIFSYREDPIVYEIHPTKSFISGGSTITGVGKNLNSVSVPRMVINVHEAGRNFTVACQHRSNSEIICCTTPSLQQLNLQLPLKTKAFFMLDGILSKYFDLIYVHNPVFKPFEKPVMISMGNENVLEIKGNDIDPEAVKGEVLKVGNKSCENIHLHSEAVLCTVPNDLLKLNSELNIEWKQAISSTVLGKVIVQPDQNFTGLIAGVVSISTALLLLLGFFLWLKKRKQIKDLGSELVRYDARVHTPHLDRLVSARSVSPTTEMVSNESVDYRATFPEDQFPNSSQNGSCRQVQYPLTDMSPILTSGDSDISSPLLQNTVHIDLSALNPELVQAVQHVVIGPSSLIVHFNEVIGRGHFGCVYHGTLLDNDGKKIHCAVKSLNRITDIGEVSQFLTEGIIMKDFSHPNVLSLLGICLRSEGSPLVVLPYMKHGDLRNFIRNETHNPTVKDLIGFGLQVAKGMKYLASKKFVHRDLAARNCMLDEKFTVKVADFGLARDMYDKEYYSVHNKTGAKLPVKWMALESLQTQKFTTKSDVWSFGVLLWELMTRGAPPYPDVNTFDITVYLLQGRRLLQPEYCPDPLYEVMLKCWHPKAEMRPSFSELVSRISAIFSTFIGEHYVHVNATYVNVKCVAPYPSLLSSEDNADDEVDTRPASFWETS
Description: In addition, in order to measure the enzyme activity inhibition for cMET, the evaluation was performed in the same manner as the enzyme activity inhibition measurement experiment for the RON.
as §1, with “7.4), 0.05% BSA, 0.005%” for “7.4), 0.01%”, “Tween-20, 1” for “Tween-20, 5”, “mM MnCl2, 20” for “mM Na3VO4, 2 mM EGTA, 10”
The cMET protein was diluted to a concentration of 263 nM with a cMET storage buffer (50 mM Tris-HCl (pH 7.5), 150 mM NaCl, 0.05% Brij35, 1 mM DTT, 10% Glycerol), and then diluted again to a concentration of 2 nM with a 1× kinase reaction buffer. As a substrate cocktail, a MET-specific substrate mixture (5 uM TK peptide, […]) at a concentration 2 times the final reaction concentration.
Thereafter, a 384-well-plate was prepared, and 2.5 μl of each of the diluted compounds of Examples was added to a corresponding well of experimental group wells, and 2.5 μl of a 4% DMSO solution was dispensed into high control wells and low control wells.
as §2, with “of 2” for “of 0.4”, “nM cMET” for “nM RON”, “of 90” for “of 30”

Chain of RON (Q04912 25-1400, species assumed): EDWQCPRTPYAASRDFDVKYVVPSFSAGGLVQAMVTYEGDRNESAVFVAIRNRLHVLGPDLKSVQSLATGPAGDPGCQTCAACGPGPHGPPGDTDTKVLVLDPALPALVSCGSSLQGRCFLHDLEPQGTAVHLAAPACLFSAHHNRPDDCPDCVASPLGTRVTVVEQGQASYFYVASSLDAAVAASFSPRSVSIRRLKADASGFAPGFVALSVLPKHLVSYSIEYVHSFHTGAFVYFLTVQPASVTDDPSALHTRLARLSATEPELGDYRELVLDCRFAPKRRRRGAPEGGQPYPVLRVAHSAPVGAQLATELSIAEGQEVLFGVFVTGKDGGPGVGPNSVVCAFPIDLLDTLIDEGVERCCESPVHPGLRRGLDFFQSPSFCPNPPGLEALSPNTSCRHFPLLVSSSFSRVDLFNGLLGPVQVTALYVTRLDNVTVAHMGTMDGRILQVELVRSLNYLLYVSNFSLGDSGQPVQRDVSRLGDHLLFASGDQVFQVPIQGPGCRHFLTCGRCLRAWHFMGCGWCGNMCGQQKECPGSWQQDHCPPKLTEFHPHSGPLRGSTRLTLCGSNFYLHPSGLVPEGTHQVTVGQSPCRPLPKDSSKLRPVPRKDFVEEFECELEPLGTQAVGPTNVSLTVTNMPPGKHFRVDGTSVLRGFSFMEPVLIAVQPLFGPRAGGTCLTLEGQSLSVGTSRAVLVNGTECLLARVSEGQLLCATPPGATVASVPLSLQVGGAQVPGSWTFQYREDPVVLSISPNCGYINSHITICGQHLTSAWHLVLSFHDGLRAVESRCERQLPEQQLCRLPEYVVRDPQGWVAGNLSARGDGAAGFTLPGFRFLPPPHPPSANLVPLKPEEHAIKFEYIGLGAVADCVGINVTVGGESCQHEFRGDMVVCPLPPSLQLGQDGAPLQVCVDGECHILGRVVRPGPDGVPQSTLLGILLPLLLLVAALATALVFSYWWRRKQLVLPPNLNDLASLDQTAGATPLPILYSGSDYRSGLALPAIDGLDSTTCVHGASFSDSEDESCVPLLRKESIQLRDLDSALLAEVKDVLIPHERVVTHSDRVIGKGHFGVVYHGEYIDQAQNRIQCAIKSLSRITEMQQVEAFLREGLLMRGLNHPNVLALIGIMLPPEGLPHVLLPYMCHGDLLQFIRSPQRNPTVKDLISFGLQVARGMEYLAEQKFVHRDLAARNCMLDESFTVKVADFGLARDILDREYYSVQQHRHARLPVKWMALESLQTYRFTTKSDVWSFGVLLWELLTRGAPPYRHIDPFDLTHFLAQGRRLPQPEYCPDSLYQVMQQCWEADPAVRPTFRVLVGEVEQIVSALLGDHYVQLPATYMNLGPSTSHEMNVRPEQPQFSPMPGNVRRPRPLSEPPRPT

Row | Structure (SMILES) | IC50 [1] [nM] | IC50 [2] [nM]
1 | CC(C)n1c(=O)[nH]c2nccc(Oc3ccc(NC(=O)c4cnn(C5CCOCC5)c4C(F)(F)F)cc3F)c21 [Example 29, N-(3-fluoro-4-((1-isopropyl-2-oxo-2,3-dihydro-1H-imidazo[4,5-b]pyridine-7-yl)oxy)phenyl)-1-(tetrahydro-2H-pyran-4-yl)-5-(trifluoromethyl)-1H-pyrazole-4-carboxamide] | 50 to 500 | 50 to 500
2 | CC(C)n1c(=O)[nH]c2nccc(Oc3ccc(NC(=O)c4cnn(C(C)(C)C)c4C(F)(F)F)cc3F)c21 [Example 30, 1-(tert-butyl)-N-(3-fluoro-4-((1-isopropyl-2-oxo-2,3-dihydro-1H-imidazo[4,5-b]pyridine-7-yl)oxy)phenyl)-5-(trifluoromethyl)-1H-pyrazole-4-carboxamide] | 50 to 500 | 500 to 5000
3 | CC(C)n1c(=O)[nH]c2nccc(Oc3ccc(NC(=O)c4cnn(C5CCCCCC5)c4C(F)(F)F)cc3F)c21 [Example 31, 1-cycloheptyl-N-(3-fluoro-4-((1-isopropyl-2-oxo-2,3-dihydro-1H-imidazo[4,5-b]pyridine-7-yl)oxy)phenyl)-5-(trifluoromethyl)-1H-pyrazole-4-carboxamide] | < 50 | 500 to 5000
4 | CC(C)n1c(=O)[nH]c2nccc(Oc3ccc(NC(=O)Cc4cnn(-c5ccccc5)c4C(F)(F)F)cc3F)c21 [Example 32, N-(3-fluoro-4-((1-isopropyl-2-oxo-2,3-dihydro-1H-imidazo[4,5-b]pyridine-7-yl)oxy)phenyl)-2-(1-phenyl-5-(trifluoromethyl)-1H-pyrazol-4-yl)acetamide] | 50 to 500 | 500 to 5000
5 | CC(C)n1c(=O)[nH]c2nccc(Oc3ccc(NC(=O)c4cnn(C5CCCN(C)C5)c4C(F)(F)F)cc3F)c21 (stereo not shown) [Example 33, N-(3-fluoro-4-((1-isopropyl-2-oxo-2,3-dihydro-1H-imidazo[4,5-b]pyridine-7-yl)oxy)phenyl)-1-(1-methylpiperidine-3-yl)-5-(trifluoromethyl)-1H-pyrazole-4-carboxamide] | 50 to 500 | 500 to 5000
6 | CC(C)n1c(=O)[nH]c2nccc(Oc3ccc(NC(=O)c4cnn(-c5ccccc5F)c4C(F)(F)F)cc3F)c21 [Example 34, N-(3-fluoro-4-((1-isopropyl-2-oxo-2,3-dihydro-1H-imidazo[4,5-b]pyridine-7-yl)oxy)phenyl)-1-(2-fluorophenyl)-5-(trifluoromethyl)-1H-pyrazole-4-carboxamide] | < 50 | 500 to 5000
7 | CC(C)n1c(=O)[nH]c2nccc(Oc3ccc(NC(=O)c4cnn(-c5ccccc5Cl)c4C(F)(F)F)cc3F)c21 [Example 35, 1-(2chlorophenyl)-N-(3-fluoro-4-((1-isopropyl-2-oxo-2,3-dihydro-1H-imidazo[4,5-b]pyridine-7-yl)oxy)phenyl)-5-(trifluoromethyl)-1H-pyrazole-4-carboxamide] | < 50 | 500 to 5000
8 | CC(C)n1c(=O)[nH]c2nccc(Oc3ccc(NC(=O)c4cnn(-c5c(F)cccc5F)c4C(F)(F)F)cc3F)c21 [Example 36, 1-(2,6-difluorophenyl)-N-(3-fluoro-4-((1-isopropyl-2-oxo-2,3-dihydro-1H-imidazo[4,5-b]pyridine-7-yl)oxy)phenyl)-5-(trifluoromethyl)-1H-pyrazole-4-carboxamide] | < 50 | 500 to 5000
9 | O=C(Nc1ccc(Oc2ccnc3[nH]c(=O)n(C4CCOCC4)c23)c(F)c1)c1cnn(-c2ccccc2)c1C(F)(F)F [Example 37, N-(3-fluoro-4-((2-oxo-1-(tetrahydro-2H-pyran-4-yl)-2,3-dihydro-1H-imidazo[4,5-b]pyridine-7-yl)oxy)phenyl)-1-phenyl-5-(trifluoromethyl)-1H-pyrazole-4-carboxamide] | 50 to 500 | 500 to 5000
10 | O=C(Nc1ccc(Oc2ccnc3[nH]c(=O)n(C4CCOC4)c23)c(F)c1)c1cnn(-c2ccccc2)c1C(F)(F)F (stereo not shown) [Example 38, N-(3-fluoro-4-((2-oxo-1-(tetrahydrofuran-3-yl)-2,3-dihydro-1H-imidazo[4,5-b]pyridine-7-yl)oxy)phenyl)-1-phenyl-5-(trifluoromethyl)-1H-pyrazole-4-carboxamide] | < 50 | 500 to 5000
11 | CN1CCC(n2c(=O)[nH]c3nccc(Oc4ccc(NC(=O)c5cnn(-c6ccccc6)c5C(F)(F)F)cc4F)c32)CC1 [Example 39, N-(3-fluoro-4-((1-(1-methylpiperidine-4-yl)-2-oxo-2,3-dihydro-1H-imidazo[4,5-b]pyridine-7-yl)oxy)phenyl)-1-phenyl-5-(trifluoromethyl)-1H-pyrazole-4-carboxamide] | < 50 | > 5000
12 | CC(C)n1c(=O)[nH]c2nccc(Oc3ccc(NC(=O)c4ccn(-c5ccccc5)n4)cc3F)c21 [Example 40, N-(3-fluoro-4-((1-isopropyl-2-oxo-2,3-dihydro-1H-imidazo[4,5-b]pyridine-7-yl)oxy)phenyl)-1-phenyl-1H-pyrazole-3-carboxamide] | 500 to 5000 | 500 to 5000
13 | CC(C)n1c(=O)[nH]c2nccc(Oc3ccc(NC(=O)c4cn(-c5ccccc5)nn4)cc3F)c21 [Example 41, N-(3-fluoro-4-((1-isopropyl-2-oxo-2,3-dihydro-1H-imidazo[4,5-b]pyridine-7-yl)oxy)phenyl)-1-phenyl-1H-1,2,3-triazole-4-carboxamide] | 500 to 5000 | > 5000
14 | Cc1c(C(=O)Nc2ccc(Oc3ccnc4[nH]c(=O)n(C(C)C)c34)c(F)c2)nnn1-c1ccccc1 [Example 42, N-(3-fluoro-4-((1-isopropyl-2-oxo-2,3-dihydro-1H-imidazo[4,5-b]pyridine-7-yl)oxy)phenyl)-5-methyl-1-phenyl-1H-1,2,3-triazole-4-carboxamide] | 50 to 500 | > 5000

Source: patent US20240300944A1, “NOVEL UREA DERIVATIVE COMPOUND AS RON INHIBITOR” (LG CHEM, LTD., priority 2021, published 2024)
